According to patent US6844020B2, “Solutions of carotenoids for use in foods and personal care products” (Kemin Foods, L.C., priority 2002, dated 2005):
Several values for one entry are separate records, joined by “and”; a condition that tells them apart may be missing. Equal entries are not always repeated. Where two headings read alike, the source gives them in different places.

How the values were obtained:
[1] = Lutein solubility in essential oils; format: physicochemical
Procedure: Lutein dry cake was dissolved in each oil until visibly saturated. The sample was then blanketed with argon and sonicated for ten minutes. If the all the lutein appeared to go into solution, more was added and the process repeated. After the sample was completely saturated, the sample was transferred to a microcentrifuge tube and centrifuged at 14,000 rpm for 10 minutes. If the lutein was not pelleted by centrifugation, the sample was passed through a 0.22 μm filter unit to remove any suspended lutein. The clarified oil was then analyzed for lutein content using UV-VIS and HPLC.
Lutein content was measured by using an analytical method as follows. Using an analytical balance, 10-20 mg of the sample is weighed into a 100 ml volumetric flask. The sample is diluted to the mark with HEAT (10:6:7:7 v:v:v:v hexane:ethanol:acetone:toluene), and the mixture is agitated or stirred until the sample is dissolved. One ml of this solution is transferred by pipette into a 100 ml amber volumetric flask and diluted to the mark with ethanol. The absorbance of the ethanol solution is measured at 446 nm on a UV/Vis spectrophotometer that has previously been zeroed against ethanol. For analysis by HPLC, 1 ml of the ethanol solution is transferred to an HPLC sample vial and dried using a nitrogen or argon gas stream. The dried sample is dissolved in 1 ml of HPLC mobile phase; sonication may be necessary to complete the solution. The HPLC instrument is set with the following parameters: the column is a 25 cm×4.6 mm nitrile bonded Spherisorb with 5 μm particles; 69 minute run time; flow rate of 1.00 ml/min; back pressure of 64 bar; injection volume of 50 μl; solvent of 75:25:0.35:0.1 (v:v:v:v) hexane/methylene chloride/methanol/diisopropylethylamine (all solvents are HPLC grade); detector is a visible lamp set to 446 nm; and temperature is 22° C. Fifty μl of the ethanol solution is injected into the HPLC column. The peaks at approximately 24, 26, 28.5, 32, 34, 40 and 42 minutes (corresponding to 13, 13′-di-cis-lutein, all-trans-lutein, all-trans-zeaxanthin, 9-cis-lutein, 9′-cis-lutein, 13 and 13′-cis -lutein and 9-cis-zeaxanthin) are integrated and used to determine the HPLC percent area for the lutein peak. The following equations were used for the essential oils: [formula] [formula] [formula]
% Lutein=% Carotenoids*(% Total HPLC area of lutein/100)

[2] = Stability of lutein dry cake in essential oils; format: physicochemical; details: 20 weeks; for trans lutein dropped: accelerated conditions (40° C.); for lutein lost: ambient (25° C.)
Procedure: Stability experiments were performed with the best group of essential oils and lutein dry cake. Fresh samples were made, placed in amber vials, blanked with argon and placed onto stability at 25° C. and 40° C. after taking initial % carotenoids and % lutein. Bay, cornmint, peppermint, spearmint, tea tree, pure thyme, red thyme, and white thyme oils were all tested up to 20 weeks. FIGS. 1 and 2 show total carotenoids at ambient and FIGS. 3 and 4 show all trans lutein at ambient conditions. Tea tree oil and bay oil had the best stability of total carotenoids and all trans lutein at ambient conditions. Tea tree lost 32% lutein and pure thyme lost 22% lutein after 20 weeks. It should be noted that the oils were not tested at maximum lutein solubility conditions for stability testing.
FIGS. 5 and 6 show the same set of experiments for total carotenoids at accelerated conditions. FIGS. 7 and 8 show all trans lutein at accelerated conditions. Under accelerated conditions, bay oil, red thyme and pure thyme fared the best for total carotenoids and lutein. Bay oil trans lutein dropped 54% and pure/red thyme oil trans lutein dropped approximately 47% at 20 weeks. It seems the biggest drop occurs during the first 2-week time point then it levels off. All other oils did much worse.

[3] = cited from earlier work
[4] = consumption of lutein and zeaxanthin; Seddon et al., 1994; cited from earlier work

CC1=C[C@H](O)CC(C)(C)[C@H]1/C=C/C(C)=C/C=C/C(C)=C/C=C/C=C(C)/C=C/C=C(C)/C=C/C1=C(C)C[C@@H](O)CC1(C)C [Lutein, lutein]
% Lutein ([1]; in Almond oil, NOW Foods 7660): 0.030%
% Lutein ([1]; in Aloe Vera LQX oil, Lebermuth 50-6010-11, lot Sample): 0.028%
% Lutein ([1]; in Anise, Spanish oil, Lebermuth 50-6015-11, lot Sample): 0.223%
% Lutein ([1]; in Apricot Kernel oil, NOW Foods 7665): 0.035%
% Lutein ([1]; in Bay oil, Lebermuth 50-6025-01, lot BA41-0484): 1% and 1.001%
% Lutein ([1]; in Bay oil, Lebermuth 50-6025-01, lot Sample): 1.152%
% Lutein ([1]; in Bay oil, Spectrum Botanical EO6): 1.327%
% Lutein ([1]; in Bergamot Mint oil, Lebermuth 50-6177-01, lot Sample): 0.325%
% Lutein ([1]; in Birch, Sweet Southern oil, Lebermuth 50-6035-02, lot Sample): 0.236%
% Lutein ([1]; in Cassia, redistilled oil, Lebermuth 50-6060-01, lot Sample): 0.639%
% Lutein ([1]; in Castor oil, NOW Foods 7675): 0.171%
% Lutein ([1]; in Cedarwood, Texas White oil, Lebermuth 50-6075-01, lot Sample): 0.172%
% Lutein ([1]; in Cornmint, Redistilled oil, Lebermuth 50-6100-01, lot CR43-0155): 0.951%
% Lutein ([1]; in Cornmint, Redistilled oil, Lebermuth 50-6100-01, lot Sample): 1.163%
% Lutein ([1]; in Eucalyptus, 80/85 oil, Lebermuth 50-6105-02, lot Sample): 0.672%
% Lutein ([1]; in Eugenol, Lebermuth 50-6110-01, lot Sample): 0.517%
% Lutein ([1]; in Frankincense, Olibanum oil, Lebermuth 50-5100-01, lot Sample): 0.243%
% Lutein ([1]; in Geranium (Rose), Egyptian oil, Lebermuth 50-6130-11, lot Sample): 0.600%
% Lutein ([1]; in Grapefruit, White oil, Lebermuth 50-6140-01, lot Sample): 0.071%
% Lutein ([1]; in Grapeseed oil, NOW Foods 7705): 0.027%
% Lutein ([1]; in Juniperberry oil, Lebermuth 50-6150-02, lot Sample): 0.140%
% Lutein ([1]; in Lemon, California oil, Lebermuth 50-6160-01, lot Sample): 0.071%
% Lutein ([1]; in Lime, distilled oil, Lebermuth 50-6170-01, lot Sample): 0.213%
% Lutein ([1]; in Nutmeg oil, Lebermuth 50-6190-01, lot Sample): 0.122%
% Lutein ([1]; in Peppermint oil, Spectrum Botanical EO64): 1.358%
% Lutein ([1]; in Peppermint, Yakima redistilled oil, Lebermuth 50-6225-21, lot PY43-0157): 0.945%
% Lutein ([1]; in Peppermint, Yakima redistilled oil, Lebermuth 50-6225-21, lot Sample): 1.010%
% Lutein ([1]; in Red Thyme Thymus satureioides oil, Spectrum Botanical, item unspecified): 1.0% and 1.084%
% Lutein ([1]; in Red Thyme Thymus vulgaris oil, Spectrum Botanical EO151): 4.4% and 4.481%
% Lutein ([1]; in Rosemary, Morrocan oil, Lebermuth 50-6230-03, lot Sample): 0.637%
% Lutein ([1]; in Sage, Clary oil, Lebermuth 50-6235-03, lot Sample): 0.294%
% Lutein ([1]; in Spearmint oil, Spectrum Botanical EO76): 1.325%
% Lutein ([1]; in Spearmint, redistilled oil, Lebermuth 50-6250-11, lot 39SR-0163): 1.124%
% Lutein ([1]; in Spearmint, redistilled oil, Lebermuth 50-6250-11, lot Sample): 1.001%
% Lutein ([1]; in Tagetes oil, Lebermuth 50-6261-01, lot Sample): 0.268%
% Lutein ([1]; in Tea Tree oil, Lebermuth 50-6270-01, lot TX43-0146): 0.877%
% Lutein ([1]; in Tea Tree oil, NOW Foods 7625): 1.084%
% Lutein ([1]; in Tea Tree oil, NOW Foods 7625, listed as lutein): about 1%
% Lutein ([1]; in Tea Tree oil, Spectrum Botanical EO80): 0.942%
% Lutein ([1]; in Thyme oil, NOW Foods 7635): 3.582%
% Lutein ([1]; in Thyme oil, NOW Foods 7635, listed as lutein): 2.5%
% Lutein ([1]; in Thyme, Pure oil, Lebermuth 50-6275-04, lot TP41-0053): 3.453%
% Lutein ([1]; in Thyme, Red oil, Lebermuth 50-6275-02, lot TR43-0158): 4.753%
% Lutein ([1]; in Thyme, White oil, Lebermuth 50-6275-01, lot TLC11-T477): 3.0% and 3.095%
% Lutein ([1]; in White Thyme oil (from private source), item unspecified): 5.068%
% Lutein ([1]; in White Thyme oil, Spectrum Botanical EO82): 4.9% and 4.903%
% Lutein ([1]; in Wintergreen, Natural oil, Lebermuth 50-6285-11, lot Sample): 0.226%
% Lutein ([1]; in Wormwood, Natural oil, Lebermuth 50-6290-01, lot Sample): 0.682%
lutein solubility ([1]; in citrus oils (white grapefruit, lemon, lime)): 0.071-0.21%
lutein solubility ([1]; in grapeseed, almond and apricot kernel oils, NOW Foods): 0.02-0.03%
lutein solubility ([1]; in spearmint oil (text comparison with beta-carotene)): ~1.0%
lutein solubility ([1]; in thyme oils (red, white, pure)): 3.0-4.7% and 3.5-5% and 3-5%
trans lutein dropped ([2]; in bay oil): 54%
lutein lost ([2]; in pure thyme oil): 22%
trans lutein dropped ([2]; in pure/red thyme oil): approximately 47%
lutein lost ([2]; in tea tree oil): 32%
reported solubility ([3]; in canola oil): 0.029%
reported solubility ([3]; in corn oil): 0.042%
reported solubility ([3]; in safflower oil): 0.033%
reported solubility ([3]; in soybean oil): 0.032%
reduction in age-related macular degeneration [4]: 57%
